What all share (format): biochemical
One test addresses T1, human Lck enzyme (Homo sapiens, UniProt P06239).
T1 construct: purchased Carna Biosciences, Inc. 08-170
Kind of test: Lck enzyme inhibitory activity (time-resolved fluorometry, biotinylated peptide phosphorylation). The settings on record: biotinylated peptide phosphorylation, read-out: LCK_IC50. The gist of the method: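 Readout pairs a europium cryptate-labelled anti-phosphotyrosine antibody with XL665-streptavidin, measured by time-resolved fluorescence. IC50 derived from percent inhibition against untreated controls.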

Another test deals with T2, human Yes1 enzyme (Homo sapiens, UniProt P07947).
T2 construct: made in house
T2 sequence (P07947 whole entry): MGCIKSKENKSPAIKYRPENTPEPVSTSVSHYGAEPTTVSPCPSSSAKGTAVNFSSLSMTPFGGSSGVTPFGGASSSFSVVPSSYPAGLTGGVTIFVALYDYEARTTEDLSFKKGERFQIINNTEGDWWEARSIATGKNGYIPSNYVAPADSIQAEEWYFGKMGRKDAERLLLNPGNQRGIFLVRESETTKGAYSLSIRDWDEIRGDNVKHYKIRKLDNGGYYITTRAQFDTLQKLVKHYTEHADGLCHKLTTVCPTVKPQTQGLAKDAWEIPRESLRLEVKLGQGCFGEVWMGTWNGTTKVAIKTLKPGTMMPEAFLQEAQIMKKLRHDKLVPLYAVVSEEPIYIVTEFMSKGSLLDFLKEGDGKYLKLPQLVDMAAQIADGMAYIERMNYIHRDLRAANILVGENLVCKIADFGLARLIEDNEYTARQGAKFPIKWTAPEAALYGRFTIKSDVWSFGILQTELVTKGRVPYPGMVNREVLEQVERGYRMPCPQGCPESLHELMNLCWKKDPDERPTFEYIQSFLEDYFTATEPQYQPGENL
Kind of test: Yes1 enzyme inhibitory activity (time-resolved fluorometry, biotinylated peptide phosphorylation). The following applies: biotinylated peptide phosphorylation, read-out: YES_IC50. The essentials:
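Inhibition was expressed against a compound-free control to give IC50, using TR-FRET read-out (Eu-cryptate anti-pTyr antibody, streptavidin-XL665).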

Another test deals with T3, human Src enzyme (Homo sapiens, UniProt P12931).
T3 construct: purchased Carna Biosciences, Inc. 08-173
T3 sequence (P12931 whole entry): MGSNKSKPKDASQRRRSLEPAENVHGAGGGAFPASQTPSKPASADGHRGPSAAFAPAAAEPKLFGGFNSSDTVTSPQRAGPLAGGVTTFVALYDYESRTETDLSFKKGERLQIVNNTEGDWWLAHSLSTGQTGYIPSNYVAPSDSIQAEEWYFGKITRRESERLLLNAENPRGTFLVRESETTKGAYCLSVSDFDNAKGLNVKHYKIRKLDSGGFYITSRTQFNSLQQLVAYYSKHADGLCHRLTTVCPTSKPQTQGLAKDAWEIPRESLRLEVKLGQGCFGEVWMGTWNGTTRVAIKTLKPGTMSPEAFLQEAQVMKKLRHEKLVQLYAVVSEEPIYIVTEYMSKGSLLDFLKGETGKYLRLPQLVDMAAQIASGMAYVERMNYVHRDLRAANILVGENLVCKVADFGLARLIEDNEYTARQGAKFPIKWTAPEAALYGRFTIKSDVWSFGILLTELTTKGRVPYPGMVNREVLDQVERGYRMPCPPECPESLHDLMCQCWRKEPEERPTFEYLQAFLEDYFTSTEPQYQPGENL
Kind of test: Src enzyme inhibitory activity (time-resolved fluorometry, biotinylated peptide phosphorylation). The settings on record: biotinylated peptide phosphorylation, read-out: SRC_IC50. The essentials:
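Compounds were tested for blocking tyrosine phosphorylation of a biotinylated peptide substrate by recombinant human Src. Phosphorylated product was quantified by time-resolved fluorometry using europium cryptate and XL665 conjugates, and IC50 was calculated against the compound-free control.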

SMILES strings stand for the structures.

T1 sequence (P06239 whole entry): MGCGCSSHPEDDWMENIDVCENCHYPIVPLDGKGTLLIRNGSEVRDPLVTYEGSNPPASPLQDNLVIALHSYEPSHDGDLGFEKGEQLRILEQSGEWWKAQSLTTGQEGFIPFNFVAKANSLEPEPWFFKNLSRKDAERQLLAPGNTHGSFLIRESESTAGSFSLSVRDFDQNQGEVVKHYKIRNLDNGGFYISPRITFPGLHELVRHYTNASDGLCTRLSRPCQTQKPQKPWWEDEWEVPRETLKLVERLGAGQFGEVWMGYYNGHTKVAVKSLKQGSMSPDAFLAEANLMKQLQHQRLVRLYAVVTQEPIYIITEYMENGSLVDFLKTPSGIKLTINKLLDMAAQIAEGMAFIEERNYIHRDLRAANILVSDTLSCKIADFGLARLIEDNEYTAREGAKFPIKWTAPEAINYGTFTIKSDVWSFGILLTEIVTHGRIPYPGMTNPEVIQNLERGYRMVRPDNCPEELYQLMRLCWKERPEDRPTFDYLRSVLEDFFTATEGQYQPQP

Turning to `Cc1cc(Oc2ccccc2F)cc(C)c1-n1ncc(C(=O)c2cc3cc(F)c(NS(=O)(=O)C4CC4)cc3[nH]2)c1N` [Example 4-2-042, N-[2-[5-amino-1-[4-(2-fluorophenoxy)-2,6-dimethylphenyl]pyrazole-4-carbonyl]-5-fluoro-1H-indol-6-yl]cyclopropanesulfonamide], the IC50 at human Lck enzyme turned out to be 370 nM; on human Yes1 enzyme it was 32 nM; on human Src enzyme, 840 nM.

On to `Cc1cc(Oc2ccccc2F)ncc1-n1ncc(C(=O)c2cc3cc(F)c(NS(=O)(=O)C4CC4)cc3[nH]2)c1N` [Example 4-2-043, N-[2-[5-amino-1-[6-(2-fluorophenoxy)-4-methylpyridin-3-yl]pyrazole-4-carbonyl]-5-fluoro-1H-indol-6-yl]cyclopropanesulfonamide], for which the IC50 is 28 nM at human Lck enzyme, 1.4 nM at human Yes1 enzyme and 87 nM on human Src enzyme.

In the case of `Cc1cc(Oc2c(F)cccc2F)ncc1-n1ncc(C(=O)c2cc3cc(F)c(NS(=O)(=O)C4CC4)cc3[nH]2)c1N` [Example 4-2-044, N-[2-[5-amino-1-[6-(2,6-difluorophenoxy)-4-methylpyridin-3-yl]pyrazole-4-carbonyl]-5-fluoro-1H-indol-6-yl]cyclopropanesulfonamide], the IC50 on human Lck enzyme worked out at 32 nM; on human Yes1 enzyme, 7 nM; at human Src enzyme, 160 nM.

With `Cc1cc(Oc2cccc(F)c2F)ncc1-n1ncc(C(=O)c2cc3cc(F)c(NS(=O)(=O)C4CC4)cc3[nH]2)c1N` [Example 4-2-045, N-[2-[5-amino-1-[6-(2,3-difluorophenoxy)-4-methylpyridin-3-yl]pyrazole-4-carbonyl]-5-fluoro-1H-indol-6-yl]cyclopropanesulfonamide], the IC50 stood at 89 nM at human Lck enzyme, 4.9 nM at human Yes1 enzyme and 230 nM at human Src enzyme.

As for `Cc1cc(Oc2c(F)cccc2Cl)ncc1-n1ncc(C(=O)c2cc3cc(F)c(NS(=O)(=O)C4CC4)cc3[nH]2)c1N` [Example 4-2-046, N-[2-[5-amino-1-[6-(2-chloro-6-fluorophenoxy)-4-methylpyridin-3-yl]pyrazole-4-carbonyl]-5-fluoro-1H-indol-6-yl]cyclopropanesulfonamide], the IC50 was determined as 48 nM on human Lck enzyme, 12 nM at human Yes1 enzyme and 230 nM at human Src enzyme.

As to `Cc1ccccc1Oc1cc(C)c(-n2ncc(C(=O)c3cc4cc(F)c(NS(=O)(=O)C5CC5)cc4[nH]3)c2N)cn1` [Example 4-2-047, N-[2-[5-amino-1-[4-methyl-6-(2-methylphenoxy)pyridin-3-yl]pyrazole-4-carbonyl]-5-fluoro-1H-indol-6-yl]cyclopropanesulfonamide], the figures for the IC50 at human Lck enzyme, at human Yes1 enzyme and on human Src enzyme were 64 nM, 4.5 nM and 79 nM, respectively.

With `Cc1cc(Oc2cccc(F)c2)ncc1-n1ncc(C(=O)c2cc3cc(F)c(NS(=O)(=O)C4CC4)cc3[nH]2)c1N` [Example 4-2-048, N-[2-[5-amino-1-[6-(3-fluorophenoxy)-4-methylpyridin-3-yl]pyrazole-4-carbonyl]-5-fluoro-1H-indol-6-yl]cyclopropanesulfonamide], the IC50 at human Lck enzyme was found to be 79 nM; at human Yes1 enzyme, 12 nM; on human Src enzyme, 290 nM.

Turning to `Cc1cc2[nH]c(C(=O)c3cnn(-c4ccc(Oc5ccccc5F)cc4C)c3N)cc2cc1NS(C)(=O)=O` [Example 4-2-049, N-[2-[5-amino-1-[4-(2-fluorophenoxy)-2-methylphenyl]pyrazole-4-carbonyl]-6-methyl-1H-indol-5-yl]methanesulfonamide], the IC50 at human Lck enzyme is 1.7 nM; at human Yes1 enzyme it was 0.29 nM; at human Src enzyme, 1.9 nM.

For the compound `Cc1cc2[nH]c(C(=O)c3cnn(-c4ccc(Oc5cccc(F)c5F)cc4C)c3N)cc2cc1NS(C)(=O)=O` [Example 4-2-050, N-[2-[5-amino-1-[4-(2,3-difluorophenoxy)-2-methylphenyl]pyrazole-4-carbonyl]-6-methyl-1H-indol-5-yl]methanesulfonamide], the IC50 came to 1.7 nM at human Lck enzyme, 0.2 nM at human Yes1 enzyme and 7 nM at human Src enzyme.

Take `Cc1cc2[nH]c(C(=O)c3cnn(-c4c(C)cc(Oc5ccccc5F)cc4F)c3N)cc2cc1NS(C)(=O)=O` [Example 4-2-051, N-[2-[5-amino-1-[2-fluoro-4-(2-fluorophenoxy)-6-methylphenyl]pyrazole-4-carbonyl]-6-methyl-1H-indol-5-yl]methanesulfonamide]: the IC50 was 1.2 nM at human Lck enzyme, 0.59 nM on human Yes1 enzyme and 3.8 nM at human Src enzyme.

For the compound `Cc1cc2[nH]c(C(=O)c3cnn(-c4cnc(Oc5ccccc5F)cc4C)c3N)cc2cc1NS(C)(=O)=O` [Example 4-2-052, N-[2-[5-amino-1-[6-(2-fluorophenoxy)-4-methylpyridin-3-yl]pyrazole-4-carbonyl]-6-methyl-1H-indol-5-yl]methanesulfonamide], the IC50 was found to be 0.97 nM on human Lck enzyme, 0.44 nM on human Yes1 enzyme and 5.2 nM at human Src enzyme.

As for `Cc1cc2cc(C(=O)c3cnn(-c4ccc(Oc5ccccc5F)cc4C)c3N)[nH]c2cc1NS(C)(=O)=O` [Example 4-2-053, N-[2-[5-amino-1-[4-(2-fluorophenoxy)-2-methylphenyl]pyrazole-4-carbonyl]-5-methyl-1H-indol-6-yl]methanesulfonamide], the IC50 on human Lck enzyme amounted to 5.1 nM; at human Yes1 enzyme it was 0.34 nM; on human Src enzyme, 19 nM.

Regarding `Cc1cc2cc(C(=O)c3cnn(-c4ccc(Oc5cccc(F)c5F)cc4C)c3N)[nH]c2cc1NS(C)(=O)=O` [Example 4-2-054, N-[2-[5-amino-1-[4-(2,3-difluorophenoxy)-2-methylphenyl]pyrazole-4-carbonyl]-5-methyl-1H-indol-6-yl]methanesulfonamide], the results for the IC50 at human Lck enzyme, at human Yes1 enzyme and on human Src enzyme were 15 nM, 1.5 nM and 62 nM, respectively.

As for `Cc1cc2cc(C(=O)c3cnn(-c4c(C)cc(Oc5ccccc5F)cc4F)c3N)[nH]c2cc1NS(C)(=O)=O` [Example 4-2-055, N-[2-[5-amino-1-[2-fluoro-4-(2-fluorophenoxy)-6-methylphenyl]pyrazole-4-carbonyl]-5-methyl-1H-indol-6-yl]methanesulfonamide], the IC50 was determined as 26 nM on human Lck enzyme, 3 nM at human Yes1 enzyme and 65 nM at human Src enzyme.

For the compound `Cc1cc2cc(C(=O)c3cnn(-c4c(C)cc(Oc5cccc(F)c5F)cc4F)c3N)[nH]c2cc1NS(C)(=O)=O` [Example 4-2-056, N-[2-[5-amino-1-[4-(2,3-difluorophenoxy)-2-fluoro-6-methylphenyl]pyrazole-4-carbonyl]-5-methyl-1H-indol-6-yl]methanesulfonamide], the IC50 at human Lck enzyme stood at 24 nM; at human Yes1 enzyme, 3.9 nM; on human Src enzyme it was 97 nM.

As for `Cc1cc2cc(C(=O)c3cnn(-c4c(C)cc(Oc5cc(F)ccc5F)cc4F)c3N)[nH]c2cc1NS(C)(=O)=O` [Example 4-2-057, N-[2-[5-amino-1-[4-(2,5-difluorophenoxy)-2-fluoro-6-methylphenyl]pyrazole-4-carbonyl]-5-methyl-1H-indol-6-yl]methanesulfonamide], the IC50 was determined as 27 nM on human Lck enzyme, 4.3 nM on human Yes1 enzyme and 140 nM at human Src enzyme.

Take `Cc1cc2cc(C(=O)c3cnn(-c4c(C)cc(Oc5ccccc5Cl)cc4F)c3N)[nH]c2cc1NS(C)(=O)=O` [Example 4-2-058, N-[2-[5-amino-1-[4-(2-chlorophenoxy)-2-fluoro-6-methylphenyl]pyrazole-4-carbonyl]-5-methyl-1H-indol-6-yl]methanesulfonamide]: the IC50 turned out to be 69 nM on human Lck enzyme, 4 nM on human Yes1 enzyme and 180 nM on human Src enzyme.

On to `Cc1cc2cc(C(=O)c3cnn(-c4c(C)cc(Oc5cccc(Cl)c5)cc4F)c3N)[nH]c2cc1NS(C)(=O)=O` [Example 4-2-059, N-[2-[5-amino-1-[4-(3-chlorophenoxy)-2-fluoro-6-methylphenyl]pyrazole-4-carbonyl]-5-methyl-1H-indol-6-yl]methanesulfonamide], for which the IC50 at human Lck enzyme was determined as 110 nM; at human Yes1 enzyme it was 7.7 nM; on human Src enzyme it was 390 nM.

For `Cc1cc2cc(C(=O)c3cnn(-c4c(C)cc(Oc5ccccc5)cc4F)c3N)[nH]c2cc1NS(C)(=O)=O` [Example 4-2-060, N-[2-[5-amino-1-(2-fluoro-6-methyl-4-phenoxyphenyl)pyrazole-4-carbonyl]-5-methyl-1H-indol-6-yl]methanesulfonamide], the IC50 stood at 15 nM at human Lck enzyme, 2 nM at human Yes1 enzyme and 58 nM at human Src enzyme.

For `Cc1cc2cc(C(=O)c3cnn(-c4cnc(Oc5ccccc5F)cc4C)c3N)[nH]c2cc1NS(C)(=O)=O` [Example 4-2-061, N-(2-(5-Amino-1-(6-(2-fluorophenoxy)-4-methylpyridin-3-yl)-1H-pyrazole-4-carbonyl)-5-methyl-1H-indol-6-yl)methanesulfonamide], the values for the IC50 at human Lck enzyme, on human Yes1 enzyme and at human Src enzyme were 6.5 nM, 0.52 nM and 31 nM, respectively.

On to `Cc1cc2cc(C(=O)c3cnn(-c4cnc(Oc5cccc(F)c5F)cc4C)c3N)[nH]c2cc1NS(C)(=O)=O` [Example 4-2-062, N-[2-[5-amino-1-[6-(2,3-difluorophenoxy)-4-methylpyridin-3-yl]pyrazole-4-carbonyl]-5-methyl-1H-indol-6-yl]methanesulfonamide], for which the values for the IC50 at human Lck enzyme, at human Yes1 enzyme and at human Src enzyme were 21 nM, 3.2 nM and 130 nM, respectively.

With `Cc1cc2cc(C(=O)c3cnn(-c4cnc(Oc5ccccc5Cl)cc4C)c3N)[nH]c2cc1NS(C)(=O)=O` [Example 4-2-063, N-[2-[5-amino-1-[6-(2-chlorophenoxy)-4-methylpyridin-3-yl]pyrazole-4-carbonyl]-5-methyl-1H-indol-6-yl]methanesulfonamide], the values for the IC50 on human Lck enzyme, on human Yes1 enzyme and at human Src enzyme were 8.3 nM, 2 nM and 78 nM, respectively.

(Values after patent US10479780B2, “Aminopyrazole derivatives” (Chugai Seiyaku Kabushiki Kaisha, priority 2015, dated 2019).)
